Experiments:
BRD4 (BDII_E352-M457) = BRD4 (BDII_E352-M457) (Homo sapiens (Human), UniProt O60885); assay: TR-FRET bromodomain binding assay, BRD4 BDII; details: mean Ki, calculated from IC50, probe Kd and probe concentration
Procedure: (§1) A time-resolved fluorescence resonance energy transfer (TR-FRET) assay was used to determine the affinities of compounds of the Examples listed in Table 1 for each bromodomain of BRD4. His-tagged first (BDI: amino acids K57-E168) and second (BDII: amino acids E352-M457) bromodomains of BRD4 were expressed and purified. An Alexa647-labeled BET-inhibitor was used as the fluorescent probe in the assay.
(§2) Compound dilution series were prepared in DMSO via an approximately 3-fold serial dilution. Compound dilutions were added directly into white, low-volume assay plates (Perkin Elmer Proxiplate 384 Plus#6008280) using a Labcyte Echo in conjunction with Labcyte Access and Thermo Multidrop CombinL robotics. Compounds were then suspended in eight microliters (μL) of assay buffer (20 mM Sodium Phosphate, pH 6.0, 50 mM NaCl, 1 mM Ethylenediaminetetraacetic acid disodium salt dihydrate, 0.01% Triton X-100, 1 mM DL-Dithiothreitol) containing His-tagged bromodomain, Europium-conjugated anti-His antibody (Invitrogen PV5596) and Alexa-647-conjugated probe.
(§3) The final concentration of 1× assay mixture contained 2% DMSO, 12 nM His tagged BRD4 (BDI_K57-E168) and 100 nM probe or 4 nM His tagged BRD4 (BDII_E352-M457) and 30 nM probe, and 1 nM Europium-conjugated anti-His-tag antibody, and compound concentrations in the range of: 49.02 μM-0.61 nM or 0.98 μM-0.15 nM.
(§4) After a one-hour equilibration at room temperature, TR-FRET ratios were determined using an Envision multilabel plate reader (Ex 340, Em 495/520).
(§5) TR-FRET data were normalized to the means of 24 no-compound controls (“high”) and 8 controls containing 1 μM un-labeled probe (“low”). Percent inhibition was plotted as a function of compound concentration and the data were fit with the 4 parameter logistic equation to obtain IC50s. Inhibition constants (Ki) were calculated from the IC50s, probe Kd and probe concentration.

BRD4 (BDI_K57-E168) = BRD4 (BDI_K57-E168) (Homo sapiens (Human), UniProt O60885); assay: TR-FRET bromodomain binding assay, BRD4 BDI; details: mean Ki, calculated from IC50, probe Kd and probe concentration
Procedure: as §1, §2, §3, §4, §5

| SMILES | Ki (BRD4 (BDII_E352-M457)) | Ki (BRD4 (BDI_K57-E168)) |
| --- | --- | --- |
| CCNC(=O)c1cc2c(-c3cc(C(O)(CC)c4ccc(F)cc4)cnc3Oc3c(C)cccc3C)cn(C)c(=O)c2[nH]1 (centres unmarked) [Example 9, 4-{2-(2,6-dimethylphenoxy)-5-[1-(4-fluorophenyl)-1-hydroxypropyl]pyridin-3-yl}-N-ethyl-6-methyl-7-oxo-6,7-dihydro-1H-pyrrolo[2,3-c]pyridine-2-carboxamide] | 0.0038 µM | 0.601 µM |
| CCNC(=O)c1cc2c(-c3cc(C(O)(CC)C4CCCC4)cnc3Oc3c(C)cccc3C)cn(C)c(=O)c2[nH]1 (centres unmarked) [Example 11, 4-[5-(1-cyclopentyl-1-hydroxypropyl)-2-(2,6-dimethylphenoxy)pyridin-3-yl]-N-ethyl-6-methyl-7-oxo-6,7-dihydro-1H-pyrrolo[2,3-c]pyridine-2-carboxamide] | 0.0026 µM | 0.17 µM |
| CCNC(=O)c1cc2c(-c3cc(C(O)(CC)C4CC4)cnc3Oc3c(C)cccc3C)cn(C)c(=O)c2[nH]1 (centres unmarked) [Example 12, 4-[5-(1-cyclopropyl-1-hydroxypropyl)-2-(2,6-dimethylphenoxy)pyridin-3-yl]-N-ethyl-6-methyl-7-oxo-6,7-dihydro-1H-pyrrolo[2,3-c]pyridine-2-carboxamide] | 0.0019 µM | 0.097 µM |
| CCNC(=O)c1cc2c(-c3cc(C(O)(CC)CCc4ccccc4)cnc3Oc3c(C)cccc3C)cn(C)c(=O)c2[nH]1 (centres unmarked) [Example 14, 4-[2-(2,6-dimethylphenoxy)-5-(3-hydroxy-1-phenylpentan-3-yl)pyridin-3-yl]-N-ethyl-6-methyl-7-oxo-6,7-dihydro-1H-pyrrolo[2,3-c]pyridine-2-carboxamide] | 0.0023 µM | 0.965 µM |
| CCNC(=O)c1cc2c(-c3cc(C(C)(O)c4ccccc4)cnc3Oc3c(C)cccc3C)cn(C)c(=O)c2[nH]1 (centres unmarked) [Example 16, 4-[2-(2,6-dimethylphenoxy)-5-(1-hydroxy-1-phenylethyl)pyridin-3-yl]-N-ethyl-6-methyl-7-oxo-6,7-dihydro-1H-pyrrolo[2,3-c]pyridine-2-carboxamide] | 0.0023 µM | 0.333 µM |

Next, values leading:

| Ki (BRD4 (BDII_E352-M457)) | Ki (BRD4 (BDI_K57-E168)) | SMILES |
| --- | --- | --- |
| 0.0023 µM | 0.359 µM | CCNC(=O)c1cc2c(-c3cc(C(C)(O)CC)cnc3Oc3c(C)cccc3C)cn(C)c(=O)c2[nH]1 (centres unmarked) [Example 8, 4-[2-(2,6-dimethylphenoxy)-5-(2-hydroxybutan-2-yl)pyridin-3-yl]-N-ethyl-6-methyl-7-oxo-6,7-dihydro-1H-pyrrolo[2,3-c]pyridine-2-carboxamide] |
| 0.0054 µM | 0.715 µM | CCNC(=O)c1cc2c(-c3cc(C(O)(CC)CC(C)C)cnc3Oc3c(C)cccc3C)cn(C)c(=O)c2[nH]1 (centres unmarked) [Example 10, 4-[2-(2,6-dimethylphenoxy)-5-(3-hydroxy-5-methylhexan-3-yl)pyridin-3-yl]-N-ethyl-6-methyl-7-oxo-6,7-dihydro-1H-pyrrolo[2,3-c]pyridine-2-carboxamide] |
| 0.002 µM | 0.114 µM | CCNC(=O)c1cc2c(-c3cc(C(O)(CC)C(C)CC)cnc3Oc3c(C)cccc3C)cn(C)c(=O)c2[nH]1 (centres unmarked) [Example 13, 4-[2-(2,6-dimethylphenoxy)-5-(3-hydroxy-4-methylhexan-3-yl)pyridin-3-yl]-N-ethyl-6-methyl-7-oxo-6,7-dihydro-1H-pyrrolo[2,3-c]pyridine-2-carboxamide] |
| 0.0265 µM | 1.84 µM | CCNC(=O)c1cc2c(-c3cc(C(O)(CC)Cc4ccc(F)cc4)cnc3Oc3c(C)cccc3C)cn(C)c(=O)c2[nH]1 (centres unmarked) [Example 15, 4-{2-(2,6-dimethylphenoxy)-5-[1-(4-fluorophenyl)-2-hydroxybutan-2-yl]pyridin-3-yl}-N-ethyl-6-methyl-7-oxo-6,7-dihydro-1H-pyrrolo[2,3-c]pyridine-2-carboxamide] |
| 0.003 µM | 0.467 µM | CCNC(=O)c1cc2c(-c3cc(C(C)(O)c4ccc(F)cc4)cnc3Oc3c(C)cccc3C)cn(C)c(=O)c2[nH]1 (centres unmarked) [Example 17, 4-{2-(2,6-dimethylphenoxy)-5-[1-(4-fluorophenyl)-1-hydroxyethyl]pyridin-3-yl}-N-ethyl-6-methyl-7-oxo-6,7-dihydro-1H-pyrrolo[2,3-c]pyridine-2-carboxamide] |
